The values below come from publication PMC3261769 (Journal of Medicinal Chemistry, 2011).

Series [1] has as its system HAOSMC human aortic smooth muscle cells. To be noted: read-out: IC50 ± SD HAOSMC; ref [16]; cited from earlier work.
In series [2] the test system is HUVEC human umbilical vein endothelial cells. As to conditions: read-out: IC50 ± SD HUVEC; ref [16]; cited from earlier work.
Series [3] concerns PtK2 kidney epithelial cells. To be noted: read-out: IC50 ± SD PtK2; ref [16]; cited from earlier work.
The subject of series [4] is A10 rat embryonic aortic smooth muscle cells. As to conditions: read-out: IC50 ± SD A10; ref [16]; cited from earlier work.
Series [5] relates to MCF-7 human breast carcinoma cells. To be noted: read-out: IC50 ± SD MCF-7; ref [16]; cited from earlier work.
Series [6] concerns A2780-CIS cells (cisplatin-resistant). Briefly: Growth inhibition of A2780-CIS cells. The series is classed as cell-based, human.
The test system of series [7] is OVCAR-3 cells. Nature of the series: Growth inhibition of OVCAR-3 cells. The series is classed as cell-based, human.
The subject of series [8] is A2780wt cells. Briefly: Growth inhibition of A2780wt cells. As to conditions: read-out: IC50 ± SD A2780wt. The series is classed as cell-based, human.
Series [9] deals with tubulin. Briefly: Inhibition of tubulin polymerization. The series is classed as biochemical. As to conditions: read-out: tubulin assembly inhibition; footnotes of Table 4.
The nature of series [10]: iv and os pharmacokinetics in mice. As to conditions: male, CD-1, mouse, plasma, 5 mg/kg. Format: in vivo.

Each structure is given as a SMILES string.

Turning to `CC(=O)O[C@H]1C(=O)[C@@]2(C)[C@H]([C@H](OC(=O)c3ccccc3)[C@]3(O)C[C@H](OC(=O)[C@H](O)[C@@H](NC(=O)c4ccccc4)c4ccccc4)C(C)=C1C3(C)C)[C@]1(OC(C)=O)CO[C@@H]1C[C@@H]2O` [PTX, paclitaxel], the IC50 in [1] was 0.006 ± 0.006 µM; in series [2] it was 0.007 ± 0.004 µM; in series [3], 0.021 ± 0.008 µM; in series [4] it was 0.038 ± 0.01 µM; in series [5], 0.003 ± 0.0005 µM.

Regarding `N.N.[Cl][Pt][Cl]` [cisplatin], the “RI-1 (Resistant Index-1)” value in series [6] (IC50 in A2780-CIS divided by IC50 in A2780wt) was 18.5. In addition, the IC50 in series [6] (read-out: IC50 ± SD A2780-CIS) turned out to be 8.98 ± 0.565 µM; in [7] (read-out: IC50 ± SD OVCAR-3) it was 1.82 ± 0.254 µM; in series [8] it was 0.485 ± 0.06 µM. Also, in series [7] (IC50 in OVCAR-3 divided by IC50 in A2780wt), the “RI-2 (Resistant Index-2)” value stood at 3.7.

`CC[C@]1(O)C[C@@H]2CN(CCc3c([nH]c4ccccc34)[C@@](C(=O)OC)(c3cc4c(cc3OC)N(C)[C@H]3[C@@](O)(C(=O)OC)[C@H](OC(C)=O)[C@]5(CC)C=CCN6CC[C@]43[C@@H]65)C2)C1` [VBL, vinblastine]: in series [9], the IC50 turned out to be […].

As for `CCC1=C[C@@H]2CN(C1)Cc1c([nH]c3ccccc13)[C@@](C(=O)OC)(c1cc3c(cc1OC)N(C)[C@H]1[C@@](O)(C(=O)OC)[C@H](OC(C)=O)[C@]4(CC)C=CCN5CC[C@]31[C@@H]54)C2` [VRB, vinorelbine], the IC50 in [9] came to 3.1 µM.

`COc1cc(Sc2c(-c3cc[nH]c3)[nH]c3ccccc23)cc(OC)c1OC` [Compound 5, 2-(1H-Pyrrol-3-yl)-3-[(3′,4′,5′-trimethoxyphenyl)thio]-1H-indole] had a clearance in series [10] of 1.72 L/h/kg.

As usually defined, the clearance is the volume of plasma or blood freed of the substance per unit of time. A lower clearance goes with a low capacity for elimination.
